{"source": "patent US20130137975A1", "about": "“PET IMAGING” (OSI PHARMACEUTICALS, LLC, priority 2010, published 2013)", "key": {"[1]": {"test_system": "NCI-H441 xenografts", "assay": "tumor growth of NCI-H441 xenografts under daily treatment", "assay_type": "in vivo, mice", "conditions": "daily treatment with 60 mg/kg", "text": "(§1) Palpable tumors were evident approximately 10 days post implant. When the tumors achieved a volume of approximately 300 mm^3, the animals were sorted, randomized, and placed on study."}, "[2]": {"test_system": "H292 xenografts", "assay": "18F-FDG-PET imaging of H292 xenografts", "assay_type": "in vivo, athymic nu/nu mice", "conditions": "60 mg/kg oral; 2 and 4 hours post dosing", "method": "(§2) Palpable tumors were evident approximately 10 days post implant. […] Mice were fasted from food 12 hours prior to imaging with ^18F-FDG (VUIIS Cyclotron). […] After dosing, the mice were kept isolated in a chamber at a constant temperature of 30° C. using a warm air circulating device (Harvard Apparatus). […] After 30 minutes, PET imaging was performed using a Concord small animal PET imager. Images were then collected and reconstructed. Analyses of separate regions of interest (ROI) drawn over the area of the tumors (and muscle) were conducted and glucose uptake was calculated as % injected dose per gram of tissue against known phantom standards."}, "[3]": {"test_system": "NCI-H441 cells", "assay": "3H-2-deoxyglucose uptake assay in H441 cells", "assay_type": "cell-based", "conditions": "30 minutes after treatment; higher doses than in NCI H292 cells", "method": "(§3) H292 and H441 cells were seeded in 12 well microtiter plates (Becton Dickinson) at 9.0×10^5 cells per well in normal glucose (11.1 mM) media for 6 hours (n=3 wells/group). The media was then changed to 5.5 mM glucose media and the cells were allowed to equilibrate overnight. On the day of the assay the media was again removed and replaced with 0.0 mM glucose (glucose starvation) for three hours. […] After a 5, 30, or 45-minute exposure the media was removed, the cells placed on ice and washed with ice-cold PBS buffer solution. The PBS was then removed and the cells were lysed in RIPA buffer for 15 minutes on ice. The lysates were harvested and counted in a Packard Liquid Scintillation counter."}, "[4]": {"target": "IGF-1R (Homo sapiens, UniProt P08069)", "sequence (P08069 31-1367)": "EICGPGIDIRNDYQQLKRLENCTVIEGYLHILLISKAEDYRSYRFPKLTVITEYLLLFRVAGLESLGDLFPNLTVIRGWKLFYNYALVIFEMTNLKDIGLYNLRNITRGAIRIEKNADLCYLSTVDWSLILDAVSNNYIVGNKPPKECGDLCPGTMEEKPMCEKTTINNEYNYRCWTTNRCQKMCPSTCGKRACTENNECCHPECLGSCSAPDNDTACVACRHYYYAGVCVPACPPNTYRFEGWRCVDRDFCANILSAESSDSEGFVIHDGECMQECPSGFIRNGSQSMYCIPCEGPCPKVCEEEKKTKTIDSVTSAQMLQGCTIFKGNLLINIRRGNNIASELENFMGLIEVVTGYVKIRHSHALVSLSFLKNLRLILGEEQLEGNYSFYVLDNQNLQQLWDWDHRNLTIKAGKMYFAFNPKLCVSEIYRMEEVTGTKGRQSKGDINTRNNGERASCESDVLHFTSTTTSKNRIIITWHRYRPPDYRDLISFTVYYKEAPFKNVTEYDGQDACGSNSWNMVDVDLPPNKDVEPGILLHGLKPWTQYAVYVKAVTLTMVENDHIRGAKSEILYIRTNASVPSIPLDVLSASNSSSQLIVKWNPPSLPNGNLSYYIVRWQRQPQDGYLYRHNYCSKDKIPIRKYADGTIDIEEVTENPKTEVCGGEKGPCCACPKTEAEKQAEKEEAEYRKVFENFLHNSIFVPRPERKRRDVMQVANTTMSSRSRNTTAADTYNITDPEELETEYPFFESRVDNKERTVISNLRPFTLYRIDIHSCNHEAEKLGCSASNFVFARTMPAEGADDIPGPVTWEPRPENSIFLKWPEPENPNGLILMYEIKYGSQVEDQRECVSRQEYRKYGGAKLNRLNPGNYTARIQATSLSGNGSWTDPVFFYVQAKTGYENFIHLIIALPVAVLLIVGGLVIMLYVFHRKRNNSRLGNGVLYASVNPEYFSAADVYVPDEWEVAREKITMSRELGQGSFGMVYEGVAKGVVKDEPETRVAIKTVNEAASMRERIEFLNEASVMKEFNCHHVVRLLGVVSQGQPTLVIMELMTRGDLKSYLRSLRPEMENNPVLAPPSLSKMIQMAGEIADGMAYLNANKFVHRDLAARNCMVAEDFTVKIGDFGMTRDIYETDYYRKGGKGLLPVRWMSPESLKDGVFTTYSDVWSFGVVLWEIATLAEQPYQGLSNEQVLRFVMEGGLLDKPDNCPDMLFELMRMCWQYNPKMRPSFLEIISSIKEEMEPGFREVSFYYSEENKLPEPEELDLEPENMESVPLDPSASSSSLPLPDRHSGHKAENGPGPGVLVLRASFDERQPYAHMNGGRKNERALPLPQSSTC", "conditions": "1 μM OSI-906; panel of 116 kinases; cited from earlier work"}, "[5]": {"target": "T1, pIGF-1R (Homo sapiens, UniProt P08069)", "T1 construct": "endogenous in cells; host or cells: NCI-H292", "T1 sequence (P08069 31-1367)": "as above", "assay": "Western blot of NCI-H292 cells, target inhibition", "assay_type": "cell-based"}, "[6]": {"test_system": "H292 cells", "assay": "3H-2-deoxyglucose uptake assay in H292 cells", "assay_type": "cell-based", "conditions": "for 3H-2-deoxyglucose uptake (FIG. 16): 30 minute treatment, selected concentrations of each agent", "method": "as §3"}, "[7]": {"target": "T2, phospho-IGF1-R (Homo sapiens, UniProt P08069)", "T2 construct": "endogenous in cells; host or cells: NCI-H292 cells grown as subcutaneous xenograft tumours in athymic nu/nu mice", "T2 sequence (P08069 31-1367)": "as above", "assay": "target inhibition in H292 tumor lysates in vivo (RTK array analysis)", "parameters": "species or system mice", "conditions": "for inhibition at 60 mg/kg: NCI-H292, read-out: target inhibition of phospho-IGF1-R, single dose 60 mg/kg", "text": "All animal studies were under the approval of the Institutional Animal Care and Use Committee in an American Association for Accreditation of Laboratory Animal Care-accredited vivarium and in accordance with the Institute of Laboratory Animal Research (Guide for Care and Use of Laboratory Animals, NIH, Bethesda, Md.). Mice were 8-week-old athymic nu/nu mice (Charles Rivers) and were housed in clean specific pathogen free rooms in groups of four mice per cage. The mice were allowed access to sterile rodent chow and water ad libitum except when undergoing FDG-PET imaging, as noted. The H292 and H441 cells were harvested from T225 flasks at 90% confluency and implanted in the right thigh subcutaneously at a concentration of 1.0×10^7 cells per 100 μL of PBS inoculum. […] When the tumors achieved a volume of approximately 300 mm^3, the animals were sorted, randomized, and placed on study.\nTumor lysates were prepared according to the manufacturer's protocol (Proteome Profiler, R&D Systems). Briefly, tumor lysates were solubilized in NP-40 lysis buffer and re-suspended for 30 minutes at 2° C. with rocking. This preparation was centrifuged at 14,000×g for 5 minutes and transferred to a clean tube. Protein concentration was then determined by BCA assay. The lysate was then incubated with the Human Phospho-RTK array at 1000 μg overnight at 2° C. with rocking. The arrays were then washed, and incubated with freshly prepared detection antibody for two hours. After washing, the arrays were exposed to film for 0.5-3.0 minutes. The developed arrays were then quantitfied using a Kodak scanner and image analysis software."}, "[8]": {"test_system": "H292 cells", "assay": "analysis for cell death by FACS", "assay_type": "cell-based", "conditions": "1.0-30 μM, compared to 0.05% DMSO controls"}, "[9]": {"test_system": "H441 xenografts", "assay": "18F-FDG-PET imaging of H441 xenografts", "assay_type": "in vivo, athymic nu/nu mice", "conditions": "60 mg/kg oral; any time point evaluated (2, 4, 24 hours)", "method": "as §2"}, "[10]": {"test_system": "pERK, pAKT, pS6, AS160", "assay": "Western blot of NCI-H292 tumor lysates in vivo, markers of altered glycolysis", "parameters": "species or system mice", "conditions": "60 mg/kg", "method": "as §1\nTumors were homogenized in 1 mL of TGH buffer per 200 mg of tissue on ice at 15,000 rpm until total homogenization was achieved. For analysis of IGF-1R and IR phosphorylation status, after pre-clearing by centrifugation (14,000 rpm/5 minutes), the lysate was incubated overnight at 4° C. with an antiphosphotyrosine antibody, and 30 μL Protein A-sephorase was then added and further incubated for an additional two hours. […] Antibodies were obtained from Santa Cruz Biotechnology."}, "[11]": {"test_system": "H292 tumors", "assay": "18F-FDG biodistribution study, H292 tumors", "assay_type": "in vivo, athymic nu/nu mice", "conditions": "60 mg/kg oral; between 2 and 8 hours post treatment; scintillation counting", "method": "Palpable tumors were evident approximately 10 days post implant. […] Mice were fasted for 12-16 hours prior to dosing with the radiopharmaceutical. […] Mice were kept isolated and under a warming lamp at a temperature of approximately 30° C. One hour before the desired sacrifice time, the mice were dosed with 4-6 μCi of ^18F-FDG via the lateral tail vein. The mice were sacrificed 60 minutes later via CO2 asphyxiation, and selected tissues removed, rinsed, weighed and then placed into scintillation tubes. The samples were counted using a Cobra II Scintillation Counter and the % injected dose per gram of tissue calculated against prepared standards."}, "[12]": {"test_system": "pAKT, pS6, pERK, AS160", "assay": "Western blot of H292 in vitro cell lysates, downstream markers of altered glycolysis", "assay_type": "cell-based"}, "[13]": {"test_system": "NCI H292 xenografts", "assay": "tumor growth of NCI H292 xenografts under daily treatment", "assay_type": "in vivo, mice", "conditions": "daily treatment with 60 mg/kg", "text": "as §1"}}, "note": "Read-outs that look alike come from different tables or passages of the source."}
{"molecule": "CC1(O)CC(c2nc(-c3ccc4ccc(-c5ccccc5)nc4c3)c3c(N)nccn23)C1", "note": "(stereo not drawn) [OSI-906, cis-3-[8-amino-1-(2-phenyl-quinolin-7-yl)-imidazo[1,5-a]pyrazin-3-yl]-1-methylcyclobutanol]", "values": [{"measurement": "tumor growth compared to vehicle-treated cohort", "setting": "[1]", "result": "do not exhibit a difference in tumor growth"}, {"measurement": "18F-FDG uptake (PET SUV)", "setting": "[2]", "result": "significant decrease"}, {"measurement": "3H-2-deoxyglucose uptake (FIG. 13)", "setting": "[3]", "result": "dose dependent decrease"}, {"measurement": "inhibition of IGF-1R", "setting": "[4]", "result": "greater than 50%"}, {"measurement": "pIGF-1R", "setting": "[5]; 30 minutes of exposure, all doses (FIG. 12)", "result": "target inhibition"}, {"measurement": "pIGF-1R, time course", "setting": "[5]; 2 hours, all concentrations (10 nM, 100 nM, 500 nM)", "result": "reduction"}, {"measurement": "pIGF-1R, time course", "setting": "[5]; through 24 hours, 10 nM, 100 nM, 500 nM", "result": "inhibition remains through 24 hours in all but the lowest, 10 nM concentration"}, {"measurement": "3H-2-deoxyglucose uptake (FIG. 16)", "setting": "[6]", "result": "rapid inhibition"}, {"measurement": "3H-2-deoxyglucose uptake, onset", "setting": "[6]; as early as five minutes post treatment, increasing concentrations", "result": "significant decrease"}, {"measurement": "inhibition at 60 mg/kg", "setting": "[7]; 2 and 4 hours post treatment", "result": "~85", "unit": "%"}, {"measurement": "inhibition at 60 mg/kg", "setting": "[7]; 24 hours", "result": 70, "unit": "%"}, {"measurement": "target inhibition of pIGF-1R, RTK array (FIGS. 17 and 18)", "setting": "[7]; single 60 mg/kg treatment, 2, 4 and 24 hours", "result": "strong target inhibition"}, {"measurement": "cell death by FACS analysis", "setting": "[8]", "result": "no significant cell death"}, {"measurement": "18F-FDG uptake (PET SUV)", "setting": "[9]", "result": "do not demonstrate a significant change"}, {"measurement": "phospho-AKT, phospho-S6, phospho-ERK and AS160 in tumor lysates", "setting": "[10]; 4 hours post treatment, compared to untreated control lysates", "result": "decreased signal intensity"}, {"measurement": "pERK, pAKT, pS6 in tumor lysates", "setting": "[10]; 24 hours post dose", "result": "return to baseline levels"}, {"measurement": "decrease of 18F-FDG uptake in tumor samples compared to vehicle control animals", "setting": "[11]", "result": "20-50%"}, {"measurement": "signal intensity of phospho-AKT, phospho-S6 and AS160 bands", "setting": "[12]; 0.0 μM-30 μM, 30 minutes after drug treatment (FIG. 11)", "result": "dose dependent response with respect to decreased signal intensity"}, {"measurement": "downstream targets pERK, pAKT, pS6, AS160", "setting": "[12]; 30 minutes of exposure (FIG. 12)", "result": "inhibition of downstream targets"}, {"measurement": "tumor growth compared to vehicle controls", "setting": "[13]", "result": "significant tumor growth inhibition"}]}
{"molecule": "C#Cc1cccc(Nc2ncnc3cc(OCCOC)c(OCCOC)cc23)c1", "note": "[erlotinib, reference compound]", "values": [{"measurement": "3H-2-deoxyglucose uptake (FIG. 16)", "setting": "[6]", "result": "rapid inhibition"}]}
{"molecule": "C=C1[C@@H](C)[C@H]2[C@H](Cc3ccccc3)NC(=O)[C@]23OC(=O)/C=C/[C@H](O)CCC[C@@H](C)C/C=C/[C@H]3[C@@H]1O", "note": "[Cytochalasin B, reference compound]", "values": [{"measurement": "3H-2-deoxyglucose uptake, positive control", "setting": "[6]; 2.5-10 μM, 30 minutes post treatment (FIG. 3)", "result": "significantly inhibits uptake"}]}
